From PMC11990879, “Anticandidal Activity of Lipopeptides Containing an LL-37-Derived Peptide Fragment KR12” (Molecules, 2025)
Converted amounts (≈) assume the structure as drawn. Read-outs that look alike come from different tables or passages of the source. Marks after values point to notes of the source that are not given here. Values belong to the compound of their own block, whether it stands above or below them. Where a SMILES comes first, the peptide text is derived from it. The star is where a group is joined. Decanoyl = CCCCCCCCCC(=O)*; Octanoyl = CCCCCCCC(=O)*; Bz = O=C(c1ccccc1)*

How the values were obtained:
[1] = system: C. albicans biofilms cultured on polystyrene; type: cell-based, Candida albicans
Experimental: (§1) Fungal strains were purchased from the Polish Collection of Microorganisms (Polish Academy of Science, Wroclaw, Poland). Four reference strains of Candida (C. albicans ATCC 10231, C. glabrata ATCC 15126, C. lypolytica PCM 2680, and C. tropicalis PCM 2680) were cultured on the Dextrose Sabouraud Agar (DSA, Neogen, Lansing, MI, USA). Before performing the assays, the fungi were cultured in a Sabouraud dextrose broth (DSB, Neogen, Lansing, MI, USA) for 48 h under aerobic conditions at 25 °C. Afterward, the fungal cultures were centrifuged (2500 rpm, 10 min) and resuspended in the appropriate liquid medium for appropriate inoculums for the performed assays.
Fungal suspensions in DSB were added to the wells at initial inoculums of ca. 5 × 10^6 CFU/mL and incubated under aerobic conditions, at 25 °C for 24 h, 48 h, and 72 h, in order to grow candidal biofilms of different maturity. After the appropriate time of incubation, the wells were washed with phosphoric buffered (PBS), and fresh RPMI medium supplemented with antifungals and the lipopeptides at graded concentrations (range […]) were added. The fungal biofilms were exposed to the compounds for 24 h (aerobic conditions, 25 °C). After the exposure to antifungals, the content of the wells was aspirated and a 0.01% solution of resazurin (Sigma-Aldrich, St. Louis, MO, USA) in DSB was added. Resazurin (blue) was applied as a cell viability reagent, which upon contact with living cells is reduced to a pink resorufin. The samples with the dye were incubated for 1 h at 25 °C and the absorbance was measured at 570 and 600 nm with a microplate reader (Thermo Fisher Scientific, Waltham, MA, USA). The assays were performed four times on four different days. The results are presented as the means of the measured percentage of metabolic activity (MA) of fungi in the well when compared with positive (sample with Candida in DSB) and negative controls (pure DSB), which were taken as 100% and 0%, respectively. The MA of Candida in the samples was measured according to the following formula:MA(%) = (ΔAbs of sample − ΔAbs of negative control)/(ΔAbs of positive control − ΔAbs of negative control);(1) ΔAbs = absorbance at 570 nm − absorbance at 600 nm.(2)
The MBEC was taken as the lowest concentration of antifungal which allowed us to reduce the metabolism of fungal cells to 10% (or less) of the positive control.

[2] = system: Candida strains (C. albicans, C. glabrata, C. lipolytica, C. tropicalis); type: cell-based; conditions: MFCs equal to or twice as high as the corresponding MICs
Experimental: as §1
(§2) The strains cultured described in Section 4.1 were suspended in the Roswell Park Memorial Institute 1640 Medium (RPMI, Sigma-Aldrich, St. Louis, MO, USA) at an initial inoculum of ca. 5 × 10^3 CFU/mL. The stock solutions (1024 mg/L) of tested compounds in RPMI were added to 96-well polystyrene plates and diluted serially to well no. 10, leaving wells 11 and 12 for fertility and sterility controls. The tested Candida strains were exposed to graded concentrations (range 0.5–256 mg/L) of the lipopeptides and conventional antifungals (benzalkonium chloride, fluconazole, and nystatin) for 48 h under aerobic conditions at 25 °C. After incubation, the results were read visually.
(§3) Then the results were read visually. Both MIC as well as the MFC assays were performed threetimes on three different days.

human red blood cells = conditions: cited from earlier work
Description: Table 2 Minimum inhibitory concentrations (MIC) and minimum fungicidal concentrations (MFC) determined for peptides and reference antifungals [g/L]. The highest antimicrobial activity is marked in green, medium values in yellow, while the weakest antifungal activity is marked in red. Minimum hemolytic concentration (MHC5%—causing hemolysis of 5% of human red blood cells) determined in previous stu | column: MHC5%

[3] = system: C. albicans biofilms cultured on polystyrene; type: cell-based, Candida albicans; conditions: C. albicans biofilms of 24, 48 and 72 h, up to 512 mg/L
C. albicans ATCC 10231 [4] = assay: microbe, parasite or virus in culture; type: cell-based, Candida albicans
Experimental: as §1, §2

C. albicans ATCC 10231 [5] = assay: microbe, parasite or virus in culture; type: cell-based, Candida albicans; conditions: MIC wells and two higher concentrations seeded on DSA, 48 h, 25 °C, read visually, three times
Experimental: as §1, §2, §3

C. glabrata ATCC 15126 [6] = assay: microbe, parasite or virus in culture; type: cell-based, Candida glabrata; conditions: first C. glabrata column; RPMI 1640, inoculum ca. 5 × 10^3 CFU/mL, range 0.5–256 mg/L, 48 h, 25 °C, read visually, three times on three days
Experimental: as §1, §2

C. glabrata ATCC 15126 [7] = assay: microbe, parasite or virus in culture; type: cell-based, Candida glabrata; conditions: MIC wells and two higher concentrations seeded on DSA, 48 h, 25 °C, read visually, three times
Experimental: as §1, §2, §3

C. lypolytica PCM 2680 [8] = assay: microbe, parasite or virus in culture; type: cell-based, Candida lipolytica; conditions: RPMI 1640, inoculum ca. 5 × 10^3 CFU/mL, range 0.5–256 mg/L, 48 h, 25 °C, read visually, three times on three days
Experimental: as §1, §2

C. lypolytica PCM 2680 [9] = assay: microbe, parasite or virus in culture; type: cell-based, Candida lipolytica; conditions: MIC wells and two higher concentrations seeded on DSA, 48 h, 25 °C, read visually, three times
Experimental: as §1, §2, §3

C. tropicalis PCM 2680 [10] = assay: microbe, parasite or virus in culture; type: cell-based, Candida tropicalis
Experimental: as §1, §2

C. tropicalis PCM 2680 [11] = assay: microbe, parasite or virus in culture; type: cell-based, Candida tropicalis; conditions: MIC wells and two higher concentrations seeded on DSA, 48 h, 25 °C, read visually, three times
Experimental: as §1, §2, §3

[12] = no inhibition at the highest concentration applied

SMILES: C[C@@H]1[C@H](O)[C@@H](C)/C=C/C=C/CC/C=C/C=C/C=C/C=C/C(O[C@H]2O[C@H](C)[C@@H](O)[C@H](N)[C@@H]2O)CC2O[C@](O)(CC(O)C(O)CCC(O)CC(O)CC(O)CC(=O)O[C@H]1C)CC(O)C2C(=O)O (stereo partly shown) [Nystatin, nystatin, reference compound]
Antibiofilm concentration (256 mg/L) relative to the determined MIC ([1]; C. albicans biofilm): over 100 times
MBEC 24 h ([1]; C. albicans biofilm cultured on polystyrene for 24 h, exposure 24 h, 25 °C, RPMI, resazurin, metabolic activity reduced to 10% or less, four times on four days): 256 mg/L
MBEC 48 h ([1]; C. albicans biofilm cultured on polystyrene for 48 h, exposure 24 h, 25 °C, RPMI, resazurin, metabolic activity reduced to 10% or less, four times on four days): 256 mg/L
MBEC 72 h ([1]; C. albicans biofilm cultured on polystyrene for 72 h, exposure 24 h, 25 °C, RPMI, resazurin, metabolic activity reduced to 10% or less, four times on four days): 256 mg/L
Fungicidal activity (MFC relative to MIC) [2]: fungicidal activity against all Candida strains

SMILES: CCCCCCCCCC(=O)N[C@@H](CCCCN)C(=O)N[C@@H](CCCNC(=N)N)C(=O)N[C@H](C(=O)N[C@H](C(=O)N[C@@H](CCC(N)=O)C(=O)N[C@@H](CCCNC(=N)N)C(=O)N[C@H](C(=O)N[C@@H](CCCCN)C(=O)N[C@@H](CC(=O)O)C(=O)N[C@@H](Cc1ccccc1)C(=O)N[C@@H](CC(C)C)C(=O)N[C@@H](CCCNC(=N)N)C(N)=O)[C@@H](C)CC)C(C)C)[C@@H](C)CC [V, C10-KR12-NH2] (Decanoyl-KRIVQRIKDFLR-NH2)
MBEC 24 h ([1]; biofilms cultured on polystyrene, 24 h): >512 * mg/L
MBEC 48 h ([1]; biofilms cultured on polystyrene, 48 h): >512 * mg/L
MBEC 72 h ([1]; biofilms cultured on polystyrene, 72 h): >512 * mg/L
MHC5% (minimum hemolytic concentration causing hemolysis of 5% of human red blood cells) (human red blood cells): 4 g/L
Antibiofilm activity against any type of biofilm [3]: did not exhibit antibiofilm activity

SMILES: CC[C@H](C)[C@H](NC(=O)[C@H](CCCNC(=N)N)NC(=O)[C@H](CCC(N)=O)NC(=O)[C@@H](NC(=O)[C@@H](NC(=O)[C@H](CCCNC(=N)N)NC(=O)[C@H](CCCCN)NC(=O)c1ccccc1)[C@@H](C)CC)C(C)C)C(=O)N[C@@H](CCCCN)C(=O)N[C@@H](CC(=O)O)C(=O)N[C@@H](Cc1ccccc1)C(=O)N[C@@H](CC(C)C)C(=O)N[C@@H](CCCNC(=N)N)C(N)=O [VIII, Benzoic acid-KR12-NH2] (Bz-KRIVQRIKDFLR-NH2)
Minimum inhibitory concentration (MIC), C. albicans (C. albicans ATCC 10231 [4]; C. albicans, RPMI 1640, inoculum ca. 5 × 10^3 CFU/mL, range 0.5–256 mg/L, 48 h, 25 °C, read visually, three times on three days): 64 µg/mL (≈ 38.2 µM)
Minimum fungicidal concentration (MFC), C. albicans (C. albicans ATCC 10231 [5]): 64 µg/mL (≈ 38.2 µM)
Minimum inhibitory concentration (MIC), C. glabrata (C. glabrata ATCC 15126 [6]): 256 µg/mL (≈ 153 µM)
Minimum fungicidal concentration (MFC), C. glabrata (C. glabrata ATCC 15126 [7]): 256 µg/mL (≈ 153 µM)
Minimum inhibitory concentration (MIC), C. lipolytica (C. lypolytica PCM 2680 [8]): 32 µg/mL (≈ 19.1 µM)
Minimum fungicidal concentration (MFC), C. lipolytica (C. lypolytica PCM 2680 [9]): 32 µg/mL (≈ 19.1 µM)
Minimum inhibitory concentration (MIC), C. tropicalis (C. tropicalis PCM 2680 [10]; C. tropicalis, RPMI 1640, inoculum ca. 5 × 10^3 CFU/mL, range 0.5–256 mg/L, 48 h, 25 °C, read visually, three times on three days): 8 µg/mL (≈ 4.78 µM)
Minimum fungicidal concentration (MFC), C. tropicalis (C. tropicalis PCM 2680 [11]): 16 µg/mL (≈ 9.55 µM)
MHC5% (minimum hemolytic concentration causing hemolysis of 5% of human red blood cells) (human red blood cells; human red blood cells, determined in previous studies, ref [13],[14]): >256 * g/L

Growth inhibition of C. albicans (MIC) (C. albicans ATCC 10231 [4]; [12]): resistant
Growth inhibition of C. tropicalis (MIC) (C. tropicalis PCM 2680 [10]; [12]): resistant
SMILES: CCCCCCCC(=O)NCCCC[C@H](NC(=O)CCCCCCC)C(=O)N[C@@H](CCCNC(=N)N)C(=O)N[C@H](C(=O)N[C@H](C(=O)N[C@@H](CCC(N)=O)C(=O)N[C@@H](CCCNC(=N)N)C(=O)N[C@H](C(=O)N[C@@H](CCCCN)C(=O)N[C@@H](CC(=O)O)C(=O)N[C@@H](Cc1ccccc1)C(=O)N[C@@H](CC(C)C)C(=O)N[C@@H](CCCNC(=N)N)C(N)=O)[C@@H](C)CC)C(C)C)[C@@H](C)CC [XVI, C8^α,C8^ε-KR12-NH2] (Octanoyl-K(Octanoyl)RIVQRIKDFLR-NH2)
MHC5% (minimum hemolytic concentration causing hemolysis of 5% of human red blood cells) (human red blood cells): >256 * g/L
